Each molecule was assayed on lacto-N-biosidase (assay: Structural analysis of reaction products of lacto-N-biosidase (Example 3)). Settings: about 100 nmol substrate, 0.6 mU enzyme, 60 h at 37° C., pH 6.0.
Assay type: biochemical, Streptomyces sp 142
Method: To elucidate the reaction products of lacto-N-biosidase obtained by the method of example 1, the structures of the enzyme reaction products were analyzed in detail with the PA-oligosaccharide shown as formula VI below as the substrate. PA-oligosaccharide described by formula VI (about 100 nmol; Takara Shuzo Co.) mixed with lacto-N-biosidase (total, 0.6 mU) prepared as described in example 1 was digested for 60 h at 37° C. in a final volume of 360 μl containing 0.1M potassium phosphate buffer, pH 6.0. The reaction mixture was pyridylaminated by the method described in U.S. Pat. No. 4,975,533 and analyzed by HPLC with an amino-silica column. There were two peaks of PA-oligosaccharides: fractions 1 and 2. The elution position of fraction 1 was the same as that of the PA-oligosaccharide described by formula VII, and the elution position of fraction 2 was the same as that of PA-oligosaccharide described by formula VIII below. The amounts of these two products, calculated from the peak areas of fractions 1 and 2 , were identical to that of the PA-oligosaccharide substrate of formula VI.
For `CC(=O)N[C@H]1[C@H](O[C@@H]([C@H](O)[C@H](CNc2ccccn2)NC(C)=O)[C@H](O)CO)O[C@H](CO)[C@@H](O[C@@H]2O[C@H](CO[C@H]3O[C@H](CO)[C@@H](O)[C@H](O)[C@@H]3O[C@@H]3O[C@H](CO)[C@@H](O[C@@H]4O[C@H](CO)[C@H](O)[C@H](O)[C@H]4O)[C@H](O)[C@H]3NC(C)=O)[C@@H](O)[C@H](O[C@H]3O[C@H](CO)[C@@H](O[C@@H]4O[C@H](CO)[C@@H](O)[C@H](O[C@@H]5O[C@H](CO)[C@H](O)[C@H](O)[C@H]5O)[C@H]4NC(C)=O)[C@H](O)[C@@H]3O[C@@H]3O[C@H](CO)[C@@H](O[C@@H]4O[C@H](CO)[C@H](O)[C@H](O)[C@H]4O)[C@H](O)[C@H]3NC(C)=O)[C@@H]2O)[C@@H]1O` [formula VI], the “linkage cleaved by the enzyme reaction” value was “only lacto-N-biosidic linkage in the substrate was cleaved”.

Each molecule was assayed on lacto-N-biosidase (assay: Substrate specificity of lacto-N-biosidase (hydrolysis of oligosaccharides, HPLC)). Settings: not given.
Assay type: biochemical, Streptomyces sp 142
Method: Lacto-N-biosidase was assayed by being incubated for 20 min with the compound described by formula II below at the concentration of 2 μM at 37° C. in 10 μl of 100 mM potassium phosphate buffer, pH 6.0.
wherein PA represents a pyridylamino residue. […] Then 40 μl of 1% trifluoroacetic acid was added to the reaction mixture to stop the reaction. A portion containing 10 pmol of PA-oligosaccharides was then analyzed by HPLC with an amino-silica column (Palpak Type N column, 4.6×250 mm, Takara Shuzo), and detected by fluorescence with the excitation and emission wavelengths of 310 and 380 nm, respectively. Elution was at the flow rate of 1.0 ml/min at 40° C. with a 70:30 (v/v) mixture of acetonitrile and 0.2M triethylamine acetate buffer, pH 7.3. The degree of hydrolysis was calculated from the peak areas of the substrate and the product, PA-lactose, in comparison with the peak area of the corresponding standard PA-oligosaccharide. One unit of activity was defined as the amount of enzyme needed to release 1 μmol of PA-lactose per minute under the conditions described above.
For `CC(=O)N[C@H]1[C@H](O[C@@H]([C@H](O)[C@H](CNc2ccccn2)NC(C)=O)[C@H](O)CO)O[C@H](CO)[C@@H](O[C@@H]2O[C@H](CO[C@H]3O[C@H](CO)[C@@H](O)[C@H](O)[C@@H]3O[C@@H]3O[C@H](CO)[C@@H](O[C@@H]4O[C@H](CO)[C@H](O)[C@H](O)[C@H]4O)[C@H](O)[C@H]3NC(C)=O)[C@@H](O)[C@H](O[C@H]3O[C@H](CO)[C@@H](O[C@@H]4O[C@H](CO)[C@@H](O)[C@H](O[C@@H]5O[C@H](CO)[C@H](O)[C@H](O)[C@H]5O)[C@H]4NC(C)=O)[C@H](O)[C@@H]3O[C@@H]3O[C@H](CO)[C@@H](O[C@@H]4O[C@H](CO)[C@H](O)[C@H](O)[C@H]4O)[C@H](O)[C@H]3NC(C)=O)[C@@H]2O)[C@@H]1O` [formula III], the “products of hydrolysis by lacto-N-biosidase” value was “lacto-N-biose and the N-acetyllactosamine type of biantennary sugar chain”. For `CC(=O)N[C@H]1[C@H](Oc2ccc([N+](=O)[O-])cc2)O[C@H](CO)[C@@H](O)[C@@H]1O[C@@H]1O[C@H](CO)[C@H](O)[C@H](O)[C@H]1O` [formula V, Galβ1--3GlcNAcβ1--p--nitrophenol], the “products of hydrolysis by lacto-N-biosidase” value was “lacto-N-biose and p-nitrophenol”.

Same assay, conditions: oligosaccharides labelled with 2-aminopyridine
`CC(=O)N[C@H]1[C@H](O[C@H]2[C@@H](O)[C@@H](CO)O[C@@H](O[C@@H]([C@H](O)[C@@H](O)CNc3ccccn3)[C@H](O)CO)[C@@H]2O)O[C@H](CO)[C@@H](O)[C@@H]1O[C@@H]1O[C@H](CO)[C@H](O)[C@H](O)[C@H]1O[C@@H]1O[C@@H](C)[C@@H](O)[C@@H](O)[C@@H]1O` was tested, and the “hydrolysis by lacto-N-biosidase” value was “did not hydrolyze”. For `CC(=O)N[C@H]1[C@H](O[C@H]2[C@@H](O)[C@@H](CO)O[C@@H](O[C@@H]([C@H](O)[C@@H](O)CNc3ccccn3)[C@H](O)CO)[C@@H]2O)O[C@H](CO)[C@@H](O[C@@H]2O[C@H](CO)[C@H](O)[C@H](O)[C@H]2O)[C@@H]1O`, the “hydrolysis by lacto-N-biosidase” value was “did not hydrolyze”. For `CC(=O)N[C@H]1[C@H](O[C@H]2[C@@H](O)[C@@H](CO)O[C@@H](O[C@@H]([C@H](O)[C@@H](O)CNc3ccccn3)[C@H](O)CO)[C@@H]2O)O[C@H](CO)[C@@H](O)[C@@H]1O[C@@H]1O[C@H](CO)[C@H](O)[C@H](O)[C@H]1O`, the “hydrolysis by lacto-N-biosidase” value was “specifically hydrolyzed”. `CC(=O)N[C@H]1[C@H](O[C@@H]2[C@H](O)[C@@H](O)[C@H](O[C@@H]([C@H](O)[C@@H](O)CNc3ccccn3)[C@H](O)CO)O[C@@H]2CO)O[C@H](CO)[C@H](O)[C@@H]1O[C@@H]1O[C@H](CO)[C@H](O)[C@H](O)[C@H]1O` [asialo GM1 tetrasaccharide] was tested, and the “hydrolysis by lacto-N-biosidase” value was “did not hydrolyze”. With `CC(=O)N[C@H]1[C@H](O[C@H]2[C@@H](O)[C@@H](CO)O[C@@H](O[C@H]3[C@H](O)[C@@H](O)C(O)O[C@@H]3CO)[C@@H]2O)O[C@H](CO)[C@@H](O)[C@@H]1O` (stereo partly drawn) [lacto-N-triose] the “hydrolysis by lacto-N-biosidase” value was “did not hydrolyze”. With poly-N-acetyllactosamine the “hydrolysis by lacto-N-biosidase” value was “did not hydrolyze”. In the case of sialyl lacto-N-tetraose, the “hydrolysis by lacto-N-biosidase” value is reported as “did not hydrolyze”.

What follows are molecules tested on lacto-N-biosidase and α-1,3/4 fucosidase (assay: Digestion with a mixture of lacto-N-biosidase and α-1,3/4 fucosidase). Settings: lacto-N-biosidase plus α-1,3/4 fucosidase.
Assay type: biochemical
Excerpt: The method and the reagent of this invention can be used in studies done to identify type 1 structures in glycoconjugates, to distinguish type 1 oligosaccharides from type 2 oligosaccharides, and to elucidate the functions of lacto-N-biosyl residues in glycoconjugates. In particular, with its use, the Le^a structure can be easily distinguished from the Le^x structure by use of lacto-N-biosidase and α-1,3/4 fucosidase (Ogata-Arakawa et al., Arch. Biochem. Biophys. 181, 353, 1977; Scudder et al., J. Biol. Chem. 265, 16472, 1990; Sano et al., J. Biol. Chem. 267, 1522, 1992).
For `CC(=O)N[C@H]1[C@H](O[C@H]2[C@@H](O)[C@@H](CO)O[C@@H](O[C@@H]([C@H](O)[C@@H](O)CNc3ccccn3)[C@H](O)CO)[C@@H]2O)O[C@H](CO)[C@@H](O[C@@H]2O[C@H](CO)[C@H](O)[C@H](O)[C@H]2O)[C@@H]1O[C@@H]1O[C@@H](C)[C@@H](O)[C@@H](O)[C@@H]1O` [PA-lacto-N-fucopentaose III], the “product obtained on treatment with the mixture of the two enzymes” value was “PA-lacto-N-neotetraose was obtained”. In the case of `CC(=O)N[C@H]1[C@H](O[C@H]2[C@@H](O)[C@@H](CO)O[C@@H](O[C@@H]([C@H](O)[C@@H](O)CNc3ccccn3)[C@H](O)CO)[C@@H]2O)O[C@H](CO)[C@@H](O[C@@H]2O[C@@H](C)[C@@H](O)[C@@H](O)[C@@H]2O)[C@@H]1O[C@@H]1O[C@H](CO)[C@H](O)[C@H](O)[C@H]1O` [PA-lacto-N-fucopentaose II], the “product obtained on treatment with the mixture of the two enzymes” value is reported as “PA-lactose was obtained”.
